From ChEMBL document CHEMBL1201862, “PubChem BioAssay data set” (2004)
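48-hour exposure; five concentrations; linearly interpolated endpoints. GI50: concentration for 50% inhibition of growth.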 The source made the active and inactive calls. Cut-off read from the data, not from the text of the source: active = GI50 up to about 1.1 µM and inactive = higher. Square brackets hold non-standard residues; d marks the D form. Peptide text beside a SMILES is read from it. 2Nal = N[CH](Cc1ccc2ccccc2c1)C(=O)O

Columns and labels:
Assay in all cases: inhibition of tumour cell growth, NCI panel, 48 h
[1] = tested on: DU-145
[2] = tested on: SNB-19
[3] = tested on: PC-3
[4] = tested on: HT-29
[5] = tested on: SF-268
[6] = tested on: OVCAR-8
[7] = tested on: NCI-H522
[8] = tested on: SW-620
[9] = tested on: ACHN
[10] = tested on: OVCAR-3
[11] = tested on: BT-549
[12] = tested on: HOP-62
[13] = tested on: NCI/ADR-RES
[14] = tested on: SK-MEL-28
[15] = tested on: 786-0
[16] = tested on: SN12C
[17] = tested on: SK-MEL-2
[18] = tested on: LOX IMVI
[19] = tested on: HOP-92
[20] = tested on: OVCAR-5

COC(=O)c1ccc(/C=C2\Cc3ccccc3C2=O)cc1
GI50 [1]: > 100 µM (inactive)
GI50 [2]: > 100 µM (inactive)
GI50 [3]: > 100 µM (inactive)
GI50 [4]: > 100 µM (inactive)
GI50 [5]: > 100 µM (inactive)
GI50 [6]: > 100 µM (inactive)
GI50 [7]: > 100 µM (inactive)
GI50 [8]: > 100 µM (inactive)
GI50 [9]: > 100 µM (inactive)
GI50 [10]: > 100 µM (inactive)
GI50 [11]: > 100 µM (inactive)
GI50 [12]: > 100 µM (inactive)
GI50 [13]: > 100 µM (inactive)
GI50 [14]: > 100 µM (inactive)
GI50 [15]: > 100 µM (inactive)
GI50 [16]: > 100 µM (inactive)

Cc1ccc(S(=O)(=O)N2CCc3cc(O)c([N+](=O)[O-])cc32)cc1
GI50 [1]: > 100 µM (inactive)
GI50 [2]: > 100 µM (inactive)
GI50 [3]: > 100 µM (inactive)
GI50 [5]: > 100 µM (inactive)
GI50 [6]: > 100 µM (inactive)
GI50 [7]: > 100 µM (inactive)
GI50 [8]: > 100 µM (inactive)
GI50 [17]: > 100 µM (inactive)
GI50 [9]: > 100 µM (inactive)
GI50 [11]: > 100 µM (inactive)
GI50 [12]: > 100 µM (inactive)
GI50 [13]: > 100 µM (inactive)
GI50 [14]: > 100 µM (inactive)
GI50 [15]: > 100 µM (inactive)
GI50 [18]: > 100 µM (inactive)
GI50 [16]: > 100 µM (inactive)

CC(C)C(NC(=O)C(CCCCN)NC(=O)C(Cc1c[nH]c2ccccc12)NC(=O)C(Cc1ccc(O)cc1)NC(=O)C(CS)NC(=O)C(N)Cc1ccc2ccccc2c1)C(=O)NC(CS)C(=O)NC(C(N)=O)C(C)O (stereo not given) (H-[2Nal]CYWKVCT-NH2; configuration not given here)
GI50 [1]: > 12.5 µM (inactive)
GI50 [2]: > 100 µM (inactive)
GI50 [3]: > 12.5 µM (inactive)
GI50 [4]: > 12.5 µM (inactive)
GI50 [5]: > 12.5 µM (inactive)
GI50 [19]: < 0.01 µM (active)
GI50 [6]: > 12.5 µM (inactive)
GI50 [7]: > 12.5 µM (inactive)
GI50 [8]: > 12.5 µM (inactive)
GI50 [17]: > 12.5 µM (inactive)
GI50 [20]: > 12.5 µM (inactive)
GI50 [9]: > 12.5 µM (inactive)
GI50 [10]: > 12.5 µM (inactive)
GI50 [12]: > 12.5 µM (inactive)
GI50 [13]: > 12.5 µM (inactive)
GI50 [14]: > 100 µM (inactive)
GI50 [15]: > 12.5 µM (inactive)
GI50 [18]: > 12.5 µM (inactive)
GI50 [16]: > 12.5 µM (inactive)

CC(C)(C)C(=O)/C=C(\OB(F)F)C(C)(C)C
GI50 [1]: > 100 µM (inactive)
GI50 [2]: > 100 µM (inactive)
GI50 [3]: > 100 µM (inactive)
GI50 [4]: > 100 µM (inactive)
GI50 [5]: > 100 µM (inactive)
GI50 [19]: > 100 µM (inactive)
GI50 [6]: > 100 µM (inactive)
GI50 [7]: > 100 µM (inactive)
GI50 [8]: > 100 µM (inactive)
GI50 [17]: > 100 µM (inactive)
GI50 [20]: > 100 µM (inactive)
GI50 [9]: > 100 µM (inactive)
GI50 [10]: > 100 µM (inactive)
GI50 [12]: > 100 µM (inactive)
GI50 [13]: > 100 µM (inactive)
GI50 [14]: > 100 µM (inactive)
GI50 [15]: > 100 µM (inactive)
GI50 [18]: > 100 µM (inactive)
GI50 [16]: > 100 µM (inactive)

COc1ccc(OC)c(C23CCCC(C2)N(C)CC3)c1 (stereo not given)
GI50 [1]: 32.7 µM (inactive)
GI50 [2]: 6.75 µM (inactive)
GI50 [3]: 16.4 µM (inactive)
GI50 [4]: 14.9 µM (inactive)
GI50 [5]: 44.6 µM (inactive)
GI50 [17]: 21.8 µM (inactive)
GI50 [20]: 40 µM (inactive)
GI50 [9]: 26.9 µM (inactive)
GI50 [10]: 19.6 µM (inactive)
GI50 [11]: 30.8 µM (inactive)
GI50 [13]: 60.3 µM (inactive)
GI50 [15]: 25.3 µM (inactive)
GI50 [16]: 28.2 µM (inactive)

Nc1nc(Cl)cc(/N=N\c2ccccc2)n1
GI50 [1]: > 100 µM (inactive)
GI50 [2]: 45.8 µM (inactive)
GI50 [4]: 31.3 µM (inactive)
GI50 [5]: 29.5 µM (inactive)
GI50 [19]: 2.33 µM (inactive)
GI50 [6]: 33.2 µM (inactive)
GI50 [7]: 30.6 µM (inactive)
GI50 [8]: > 100 µM (inactive)
GI50 [17]: 20.8 µM (inactive)
GI50 [20]: 72.1 µM (inactive)
GI50 [9]: 26.6 µM (inactive)
GI50 [10]: 11.7 µM (inactive)
GI50 [11]: 72.4 µM (inactive)
GI50 [12]: 24.1 µM (inactive)
GI50 [13]: 39.8 µM (inactive)
GI50 [14]: > 100 µM (inactive)
GI50 [15]: 30.6 µM (inactive)
GI50 [18]: 18.5 µM (inactive)
GI50 [16]: 43 µM (inactive)

O=C(O)c1cc([N+](=O)[O-])cc2c(=O)c3cnccc3[nH]c12
GI50 [1]: > 100 µM (inactive)
GI50 [2]: > 100 µM (inactive)
GI50 [3]: 29.6 µM (inactive)
GI50 [4]: > 100 µM (inactive)
GI50 [6]: > 100 µM (inactive)
GI50 [7]: > 100 µM (inactive)
GI50 [17]: > 100 µM (inactive)
GI50 [20]: > 100 µM (inactive)
GI50 [10]: > 100 µM (inactive)
GI50 [11]: > 100 µM (inactive)
GI50 [12]: > 100 µM (inactive)
GI50 [13]: > 100 µM (inactive)
GI50 [14]: > 100 µM (inactive)
GI50 [16]: > 100 µM (inactive)

CC(=O)NC1(NC(C)=O)C2CC(C1Cc1ccccc1)C(C)(C)C2C (stereo not given)
GI50 [1]: > 100 µM (inactive)
GI50 [2]: > 100 µM (inactive)
GI50 [3]: > 100 µM (inactive)
GI50 [4]: > 100 µM (inactive)
GI50 [5]: > 100 µM (inactive)
GI50 [19]: > 100 µM (inactive)
GI50 [6]: > 100 µM (inactive)
GI50 [7]: > 100 µM (inactive)
GI50 [8]: > 100 µM (inactive)
GI50 [20]: > 100 µM (inactive)
GI50 [9]: > 100 µM (inactive)
GI50 [10]: > 100 µM (inactive)
GI50 [11]: > 100 µM (inactive)
GI50 [12]: > 100 µM (inactive)
GI50 [14]: > 100 µM (inactive)
GI50 [15]: > 100 µM (inactive)
GI50 [16]: > 100 µM (inactive)

CCC(=O)NC(Nc1ccc(O)cc1)(C(F)(F)F)C(F)(F)F
GI50 [1]: > 100 µM (inactive)
GI50 [2]: > 100 µM (inactive)
GI50 [4]: > 100 µM (inactive)
GI50 [5]: > 100 µM (inactive)
GI50 [7]: 27.4 µM (inactive)
GI50 [17]: 41.6 µM (inactive)
GI50 [20]: > 100 µM (inactive)
GI50 [9]: 56 µM (inactive)
GI50 [10]: 40.6 µM (inactive)
GI50 [11]: 28.1 µM (inactive)
GI50 [12]: > 100 µM (inactive)
GI50 [14]: > 100 µM (inactive)
GI50 [18]: 33.6 µM (inactive)
GI50 [16]: > 100 µM (inactive)

Cc1cccc2c1[nH]c1[nH]c(=O)[nH]c(=O)c12
GI50 [1]: > 100 µM (inactive)
GI50 [2]: > 100 µM (inactive)
GI50 [4]: > 100 µM (inactive)
GI50 [5]: > 100 µM (inactive)
GI50 [19]: > 100 µM (inactive)
GI50 [6]: > 100 µM (inactive)
GI50 [7]: > 100 µM (inactive)
GI50 [8]: > 100 µM (inactive)
GI50 [17]: > 100 µM (inactive)
GI50 [20]: > 100 µM (inactive)
GI50 [9]: > 100 µM (inactive)
GI50 [10]: 30.7 µM (inactive)
GI50 [11]: > 100 µM (inactive)
GI50 [12]: > 100 µM (inactive)
GI50 [13]: > 100 µM (inactive)
GI50 [15]: > 100 µM (inactive)
GI50 [18]: > 100 µM (inactive)
GI50 [16]: > 100 µM (inactive)

O=C(/C=C/c1ccc(O)c(O)c1)NCCc1ccc(-c2ccccc2)cc1
GI50 [1]: > 100 µM (inactive)
GI50 [2]: > 100 µM (inactive)
GI50 [3]: > 100 µM (inactive)
GI50 [4]: 63.5 µM (inactive)
GI50 [5]: 31.8 µM (inactive)
GI50 [6]: > 100 µM (inactive)
GI50 [7]: > 100 µM (inactive)
GI50 [8]: > 100 µM (inactive)
GI50 [17]: > 100 µM (inactive)
GI50 [20]: 87.7 µM (inactive)
GI50 [10]: 20.4 µM (inactive)
GI50 [11]: 74.5 µM (inactive)
GI50 [12]: 31.3 µM (inactive)
GI50 [13]: 64.7 µM (inactive)
GI50 [14]: 59.8 µM (inactive)
GI50 [15]: 49.7 µM (inactive)

O=C(CCCN1CCC2(CC1)CC(c1ccccc1)OC2=O)c1ccc(F)cc1 (stereo not given)
GI50 [1]: 64.9 µM (inactive)
GI50 [2]: 39.2 µM (inactive)
GI50 [3]: 40.2 µM (inactive)
GI50 [4]: 9.06 µM (inactive)
GI50 [5]: 53.7 µM (inactive)
GI50 [19]: 26.9 µM (inactive)
GI50 [6]: > 100 µM (inactive)
GI50 [7]: > 100 µM (inactive)
GI50 [8]: 40.1 µM (inactive)
GI50 [17]: 35.1 µM (inactive)
GI50 [20]: 45.9 µM (inactive)
GI50 [9]: 54.6 µM (inactive)
GI50 [10]: 33.3 µM (inactive)
GI50 [12]: 29.6 µM (inactive)
GI50 [13]: 92 µM (inactive)
GI50 [14]: 39.4 µM (inactive)
GI50 [15]: 24.1 µM (inactive)
GI50 [18]: 19.6 µM (inactive)
GI50 [16]: 48.6 µM (inactive)
